Data set [1] can be described thus: Cytotoxicity against African green monkey Vero E6 cells incubated for 24 hrs by CCK8 assay. In kind it is toxicity, cell-based, Vero C1008. To be noted: chlorocebus sabaeus.
The nature of data set [2]: Acute toxicity in mouse at 500 mg/kg, po administered twice a day for 5 days. It is filed as organism-based. Particulars: in vivo, 120 h, time 5 day.
Data set [3] is described as follows: Acute toxicity in mouse assessed as body weight change at 500 mg/kg, po administered twice a day for 5 days. It is filed as organism-based. To be noted: in vivo, 120 h, time 5 day.
In data set [4] the target is Trypsin (Homo sapiens, UniProt P07477+P07478+P35030). The data set can be described thus: Inhibition of human trypsin using CBZ-Arg-Arg-AMC as substrate incubated for 10 mins by FRET-enzymatic assay. It is filed as protein assay.
Data set [5] has as its target T1, Replicase polyprotein 1ab (Severe acute respiratory syndrome coronavirus 2, UniProt P0DTD1).
A short description of data set [6]: Inhibition of mouse hepatitis virus 3CLpro by FRET-enzymatic assay. On the set-up: species or system Murine hepatitis virus.
A short description of data set [7]: AUClast in ICR mouse at 20 mg/kg, po. It is filed as ADME, organism-based. Particulars: in vivo.
Data set [8] addresses Prothrombin (Homo sapiens, UniProt P00734). The data set can be described thus: Inhibition of human thrombin using benzoyl-FVR-AMC as substrate incubated for 10 mins by FRET-enzymatic assay.
For data set [9], the target named is T2, Caspase-3 (Homo sapiens, UniProt P42574).
T2 sequence (P42574 whole entry): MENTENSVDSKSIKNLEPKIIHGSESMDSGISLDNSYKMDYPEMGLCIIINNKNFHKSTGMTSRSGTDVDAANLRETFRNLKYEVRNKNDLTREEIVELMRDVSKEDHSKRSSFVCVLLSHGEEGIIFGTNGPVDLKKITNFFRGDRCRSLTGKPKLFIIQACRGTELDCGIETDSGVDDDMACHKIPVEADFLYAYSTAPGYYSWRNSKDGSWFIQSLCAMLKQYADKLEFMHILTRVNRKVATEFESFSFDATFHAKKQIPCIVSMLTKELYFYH
Description: Inhibition of human Caspase-3 activity using Ac-DEVD-pNA as substrate incubated for 5 mins by FRET-enzymatic assay.

In data set [10] the target is Cathepsin D (Homo sapiens, UniProt P07339). Description: Inhibition of human Cathepsin D using MCA-PLGL-Dap(Dnp)-AR-NH2 as substrate incubated for 10 mins by FRET-enzymatic assay.
Sequence of Cathepsin D (P07339 65-162 limits assumed): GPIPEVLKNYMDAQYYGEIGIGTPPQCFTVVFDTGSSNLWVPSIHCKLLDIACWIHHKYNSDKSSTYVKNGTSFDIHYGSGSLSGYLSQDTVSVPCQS
Sequence of Cathepsin D (P07339 169-412 limits assumed): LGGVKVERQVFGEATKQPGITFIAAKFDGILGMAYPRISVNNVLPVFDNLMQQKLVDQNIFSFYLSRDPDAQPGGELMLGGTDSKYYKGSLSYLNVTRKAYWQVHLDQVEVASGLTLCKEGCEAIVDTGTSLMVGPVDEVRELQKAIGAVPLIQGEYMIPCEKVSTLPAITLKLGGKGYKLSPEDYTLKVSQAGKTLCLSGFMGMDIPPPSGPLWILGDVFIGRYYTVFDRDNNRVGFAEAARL
The target of data set [11] is Replicase polyprotein 1ab (Severe acute respiratory syndrome coronavirus 2) (UniProt P0DTD1). Particulars: dose 31.25-1000 nM, time 100.0 sec.
Data set [12] can be described thus: AUC (0 to infinity) in ICR mouse at 20 mg/kg, po. To be noted: in vivo. It is filed as ADME, organism-based.
Data set [13] can be described thus: Half-life in ICR mouse at 20 mg/kg, po. Particulars: in vivo. In kind it is ADME, organism-based.
For data set [14], the target named is Replicase polyprotein 1ab (Severe acute respiratory syndrome coronavirus 2) (UniProt P0DTD1). Particulars: dose 31.25-1000 nM, time 100.0 sec. This is another data set of the same source.
Data set [15] deals with T1, Replicase polyprotein 1ab. The source holds these as a separate data set.
In data set [16] the target is Dipeptidyl peptidase 4 (Homo sapiens, UniProt P27487). The data set can be described thus: Inhibition of human DPP-4 using Gly-Pro-AMC as substrate incubated for 10 mins by FRET-enzymatic assay.
Sequence of Dipeptidyl peptidase 4 (P27487 whole entry): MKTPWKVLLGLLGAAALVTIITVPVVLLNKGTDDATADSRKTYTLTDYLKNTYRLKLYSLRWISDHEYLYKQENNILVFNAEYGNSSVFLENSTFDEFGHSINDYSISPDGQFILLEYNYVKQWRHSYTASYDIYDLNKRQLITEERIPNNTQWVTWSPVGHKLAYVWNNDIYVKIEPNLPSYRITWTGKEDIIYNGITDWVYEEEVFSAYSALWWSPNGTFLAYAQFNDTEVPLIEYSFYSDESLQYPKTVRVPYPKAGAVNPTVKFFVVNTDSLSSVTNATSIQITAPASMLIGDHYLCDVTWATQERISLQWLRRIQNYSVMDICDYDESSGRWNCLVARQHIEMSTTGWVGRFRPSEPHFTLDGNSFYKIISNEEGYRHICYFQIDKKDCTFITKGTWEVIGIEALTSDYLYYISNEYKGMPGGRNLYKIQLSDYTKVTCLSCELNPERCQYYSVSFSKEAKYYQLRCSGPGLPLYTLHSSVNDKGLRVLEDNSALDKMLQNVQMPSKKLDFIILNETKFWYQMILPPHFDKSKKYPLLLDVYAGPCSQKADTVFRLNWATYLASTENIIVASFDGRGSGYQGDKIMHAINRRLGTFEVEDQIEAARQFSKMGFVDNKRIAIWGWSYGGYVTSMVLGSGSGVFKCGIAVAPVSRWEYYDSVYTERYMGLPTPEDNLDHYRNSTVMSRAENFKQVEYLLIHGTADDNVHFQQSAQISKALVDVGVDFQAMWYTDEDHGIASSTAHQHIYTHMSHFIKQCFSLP
Data set [17] can be described thus: Inhibition of HCov-OC43 3CLpro by FRET-enzymatic assay. Also noted: species or system Human coronavirus OC43.
Data set [18] concerns the target Replicase polyprotein 1ab (Human coronavirus 229E, UniProt P0C6X1). The data set can be described thus: Inhibition of HCov-229E 3CLpro by FRET-enzymatic assay.
For data set [19], the target named is Procathepsin L (Homo sapiens, UniProt P07711). The data set can be described thus: Inhibition of human Cathepsin L using Z-Phe-Arg-AMC as substrate incubated for 10 mins by FRET-enzymatic assay.
Sequence of Procathepsin L (P07711 whole entry): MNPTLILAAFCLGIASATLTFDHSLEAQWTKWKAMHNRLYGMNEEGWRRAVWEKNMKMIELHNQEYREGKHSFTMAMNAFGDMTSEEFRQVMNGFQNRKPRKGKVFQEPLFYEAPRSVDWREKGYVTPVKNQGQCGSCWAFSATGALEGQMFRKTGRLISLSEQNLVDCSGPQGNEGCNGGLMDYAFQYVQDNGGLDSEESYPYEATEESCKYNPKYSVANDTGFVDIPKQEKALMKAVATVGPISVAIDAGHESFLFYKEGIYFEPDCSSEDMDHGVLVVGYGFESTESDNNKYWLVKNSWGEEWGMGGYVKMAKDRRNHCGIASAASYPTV
Data set [20] in a line: Inhibition of porcine delta coronavirus 3CLpro by FRET-enzymatic assay. Also noted: species or system Porcine deltacoronavirus.
The nature of data set [21]: Cmax in ICR mouse at 20 mg/kg, po. It is filed as ADME, organism-based. Particulars: in vivo.
Data set [22] is described as follows: Tmax in ICR mouse at 20 mg/kg, po. To be noted: in vivo. It is filed as ADME, organism-based.
Data set [23] is described as follows: Inhibition of Bat coronavirus HKU9 3CLpro by FRET-enzymatic assay. On the set-up: species or system Rousettus bat coronavirus HKU9.
For data set [24], the target named is T3, Cathepsin K (Homo sapiens, UniProt P43235).
T3 sequence (P43235 whole entry): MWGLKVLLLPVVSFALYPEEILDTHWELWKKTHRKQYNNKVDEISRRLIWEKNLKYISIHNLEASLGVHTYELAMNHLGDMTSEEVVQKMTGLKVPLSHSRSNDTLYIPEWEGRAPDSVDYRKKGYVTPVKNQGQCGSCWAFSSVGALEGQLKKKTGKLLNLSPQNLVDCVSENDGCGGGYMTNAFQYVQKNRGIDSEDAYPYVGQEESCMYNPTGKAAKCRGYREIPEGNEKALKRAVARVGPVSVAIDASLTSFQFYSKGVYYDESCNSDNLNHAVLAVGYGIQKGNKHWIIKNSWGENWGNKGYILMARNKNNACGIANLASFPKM
The data set can be described thus: Inhibition of human Cathepsin K using Z-Phe-Arg-AMC as substrate incubated for 10 mins by FRET-enzymatic assay.

For data set [25], the target named is 3C-like protease (Infectious bronchitis virus, UniProt Q3Y5H1). The data set can be described thus: Inhibition of Infectious bronchitis virus 3CLpro by FRET-enzymatic assay.
Sequence of 3C-like protease (Q3Y5H1 whole entry): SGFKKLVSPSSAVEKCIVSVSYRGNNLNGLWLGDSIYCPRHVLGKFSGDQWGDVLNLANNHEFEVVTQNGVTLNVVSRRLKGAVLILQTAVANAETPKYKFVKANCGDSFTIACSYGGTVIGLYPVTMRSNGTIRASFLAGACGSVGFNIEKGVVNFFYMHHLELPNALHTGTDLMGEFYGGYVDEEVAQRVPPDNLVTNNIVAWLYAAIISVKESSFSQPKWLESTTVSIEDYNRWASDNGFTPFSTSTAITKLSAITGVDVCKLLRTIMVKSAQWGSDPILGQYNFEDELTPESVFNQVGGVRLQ
The target of data set [26] is Cathepsin B (Homo sapiens, UniProt P07858). Description: Inhibition of human Cathepsin B using CBZ-Arg-Arg-AMC as substrate incubated for 10 mins by FRET-enzymatic assay.
Data set [27] concerns Proteasome. In kind it is subcellular, Homo sapiens.
The nature of data set [28]: Acute toxicity in mouse assessed as animal death at 500 mg/kg, po administered twice a day for 5 days. In kind it is organism-based. To be noted: in vivo, 120 h, time 5 day.
The nature of data set [29]: Observed MRT (0 to infinity) in ICR mouse at 20 mg/kg, po. In kind it is ADME, organism-based. To be noted: in vivo.
For data set [30], the target named is T4, Calpain-1 catalytic subunit (Homo sapiens, UniProt P07384).
T4 sequence (P07384 whole entry): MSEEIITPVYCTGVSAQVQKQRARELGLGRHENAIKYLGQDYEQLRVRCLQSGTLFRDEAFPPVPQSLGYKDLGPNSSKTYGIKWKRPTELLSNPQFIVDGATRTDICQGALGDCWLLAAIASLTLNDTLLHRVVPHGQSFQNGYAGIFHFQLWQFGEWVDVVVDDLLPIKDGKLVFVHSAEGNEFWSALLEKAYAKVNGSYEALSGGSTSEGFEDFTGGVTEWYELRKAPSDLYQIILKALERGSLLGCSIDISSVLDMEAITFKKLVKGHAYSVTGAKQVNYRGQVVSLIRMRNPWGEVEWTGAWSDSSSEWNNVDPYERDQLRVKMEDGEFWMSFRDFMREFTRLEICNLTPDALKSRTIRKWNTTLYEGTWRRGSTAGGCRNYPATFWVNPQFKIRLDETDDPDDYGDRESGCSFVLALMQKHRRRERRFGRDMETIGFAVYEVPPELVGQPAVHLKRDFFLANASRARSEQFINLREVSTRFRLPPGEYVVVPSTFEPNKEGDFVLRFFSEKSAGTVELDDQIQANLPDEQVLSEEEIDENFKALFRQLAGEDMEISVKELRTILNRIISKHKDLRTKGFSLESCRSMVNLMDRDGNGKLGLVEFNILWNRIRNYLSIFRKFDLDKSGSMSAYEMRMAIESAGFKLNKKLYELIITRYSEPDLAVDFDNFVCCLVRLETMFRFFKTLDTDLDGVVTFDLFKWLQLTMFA
Description: Inhibition of human Calpain 1 using N-Suc-Leu-Leu-Val-Tyr-7-AMC as substrate incubated for 10 mins by FRET-enzymatic assay.

Data set [31] is described as follows: Inhibition of Bat coronavirus WIV-1 3CLpro by FRET-enzymatic assay.
A short description of data set [32]: Inhibition of MERS-CoV 3CLpro by FRET-enzymatic assay. On the set-up: species or system Middle East respiratory syndrome-related coronavirus.
Data set [33] deals with T1, Replicase polyprotein 1ab. The source holds these as a separate data set.

Here are results for two compounds from ChEMBL document CHEMBL5523769, “Discovery of Novel Nonpeptidic and Noncovalent Small Molecule 3CLpro Inhibitors as anti-SARS-CoV-2 Drug Candidate” (J Med Chem, 2024).

Usually CC50 stands for the concentration that lowers cell viability or growth by half. Broadly, the IC50 is the point on the concentration scale where inhibition reaches its midpoint. One may read the AUC(0-t) as exposure summed from dosing to a finite time, without extrapolation to infinity. As usually defined, the AUC(0-inf) is total exposure, with the tail of the curve extrapolated. The half-life is the time in which the quantity being followed falls by half. In general, Kd refers to the constant that tells how readily two partners part at equilibrium. The Cmax is the highest concentration seen after dosing. Usually Tmax stands for the time from dosing to the highest level. Broadly, the MRT inf is a mean duration of stay, worked out from the concentration-time curve.

Sequence of Replicase polyprotein 1ab (Human coronavirus 229E, UniProt P0C6X1) (P0C6X1 2966-3267 limits assumed): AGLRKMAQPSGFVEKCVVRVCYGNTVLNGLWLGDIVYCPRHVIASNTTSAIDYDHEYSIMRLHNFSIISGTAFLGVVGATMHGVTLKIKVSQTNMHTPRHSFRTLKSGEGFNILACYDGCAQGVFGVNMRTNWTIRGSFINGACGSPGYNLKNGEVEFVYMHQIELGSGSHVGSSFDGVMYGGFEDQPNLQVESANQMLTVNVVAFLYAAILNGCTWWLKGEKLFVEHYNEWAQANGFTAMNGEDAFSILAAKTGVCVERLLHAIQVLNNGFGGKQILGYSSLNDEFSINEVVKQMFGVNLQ

In the case of `CN1CCN(C(=O)c2cc(Br)cc([N+](=O)[O-])c2N[C@@H]2CCCC[C@@H]2NC(=O)c2cc(=O)[nH]c3c(F)cccc23)CC1`, in [1], the CC50 at 24 h is greater than 200000 nM. The Activity entry in data set [2], in data set [3] and in [28] was “Non-Toxic” in each case. Also, the IC50 in data set [4] is greater than 100000 nM; in [5], 21.1 nM; in data set [6], greater than 10000 nM; in [8], greater than 100000 nM; in [9], greater than 100000 nM; in data set [10], greater than 100000 nM. The IC50 was greater than 100000 nM in data set [16]; 940 nM in data set [17]; 2560 nM in data set [18]; greater than 100000 nM in data set [19]; greater than 10000 nM in data set [20]; 402 nM in data set [23]. The IC50 in data set [24] was greater than 100000 nM; in data set [25] it was greater than 10000 nM; in data set [26] it was greater than 100000 nM; in data set [27] it was greater than 100000 nM; in data set [30] it was greater than 100000 nM; in [31], 86 nM. In addition, in data set [32], the IC50 is 1680 nM. Moreover, the AUC(0-t) in [7] is 70.6 ng·h/mL. Moreover, the K is 0.007 s⁻¹ in data set [11] and 3.8 10^5/M/s in [14]. The compound also returned an AUC(0-inf) in [12] of 77.7 ng·h/mL. For the same compound, in data set [13], the half-life was 1.21 h. In addition, binding in [15] was characterised by a dissociation constant (Kd) of 18.4 nM. Besides, in data set [21], the Cmax was 76.3 ng/mL. In addition, the Tmax in data set [22] was determined as 3 min. Further, in data set [29], the MRT inf is 1.44 h.
For the compound `O=C(c1cc(=O)[nH]c2ccccc12)N1CCN(c2ccc(Cl)c(Cl)c2)CC1CN1CCOCC1` (configuration not stated), in [1], the 50% cytotoxic concentration (CC50) at 24 h is 381000 nM. Moreover, the IC50 in [5] and in data set [33] was 150 nM throughout. The K in data set [11] was determined as 0.028 s⁻¹. Moreover, the affinity in data set [15], expressed as Kd, was 117 nM.
